Test results from patent publication US10294202B2, “Pyrrolidinones as herbicides” (FMC Corporation, priority 2013, dated 2019).

Key:
Test in all cases: Test E preemergence herbicide test
Design in all cases: key: 0 = no effect, 100 = complete control
corn = assay type: in vivo, Zea mays
Description: (§1) Seeds of plant species selected from corn (Zea mays), soybean (Glycine max), velvetleaf (Abutilon theophrasti), lambsquarters (Chenopodium album), wild poinsettia (Euphorbia heterophylla), pigweed, palmer (palmer pigweed, Amaranthus palmeri), waterhemp (common waterhemp, Amaranthus rudis), surinam grass (Brachiaria decumbens), crabgrass, large (large crabgrass, Digitaria sanguinalis), crabgrass, Brazil (Brazilian crabgrass, Digitaria horizontalis), panicum, fall (fall panicum, Panicum dichotomiflorum), foxtail, giant (giant foxtail, Setaria faberii), foxtail, green (green foxtail, Setaria viridis), goosegrass (Eleusine indica), johnsongrass (Sorghum halepense), ragweed (common ragweed, Ambrosia elatior), barnyardgrass (Echinochloa crus-galli), sandbur (southern sandbur, Cenchrus echinatus), arrowleaf […] rhombifolia), ryegrass, Italian (Italian ryegrass, Lolium multiflorum), dayflower, VA (Virginia dayflower, Commelina virginica), field bindweed (Convolvulus arvensis), morningglory (Ipomoea coccinea), nightshade (eastern black nightshade, Solanum ptycanthum), kochia (Kochia scoparia), nutsedge, yellow (yellow nutsedge, Cyperus esculentus), cocklebur (common cocklebur, Xanthium strumarium), smartweed (ladysthumb smartweed, Polygonum Persicaria) and beggarticks (hairy beggarticks, Bidens pilosa), were planted into a silt loam soil and treated preemergence with test chemicals formulated in a non-phytotoxic solvent mixture which included a surfactant. Treated plants and controls were maintained in a greenhouse for 21 days, after which time all species were compared to controls and visually evaluated. Plant response ratings, summarized in Table E, are based on a scale of 0 to 100 where 0 is no effect and 100 is complete control. A dash (-) response means no test result.

soybean = assay type: in vivo, Glycine max
Description: as §1

ragweed = assay type: in vivo, Ambrosia elatior
Description: as §1

| Compound | Plant response rating, Corn (corn; 16 g ai/ha) | Plant response rating, Corn (corn; 31 g ai/ha) | Plant response rating, Corn (corn; 62 g ai/ha) | Plant response rating, Corn (corn; 125 g ai/ha) | Plant response rating, Corn (corn; 250 g ai/ha) | Plant response rating, Soybean (soybean; 16 g ai/ha) | Plant response rating, Soybean (soybean; 31 g ai/ha) | Plant response rating, Soybean (soybean; 62 g ai/ha) | Plant response rating, Soybean (soybean; 125 g ai/ha) | Plant response rating, Soybean (soybean; 250 g ai/ha) | Plant response rating, Ragweed (ragweed; 62 g ai/ha) | Plant response rating, Ragweed (ragweed; 125 g ai/ha) | Plant response rating, Ragweed (ragweed; 250 g ai/ha) | Plant response rating, Ragweed (ragweed; 16 g ai/ha) | Plant response rating, Ragweed (ragweed; 31 g ai/ha) |
| --- | --- | --- | --- | --- | --- | --- | --- | --- | --- | --- | --- | --- | --- | --- | --- |
| O=C1NCC(c2ccc(F)cc2)C1C(=O)Nc1ccccc1F (racemic) [Compound 16] | 0 | 0 | 0 | 0 | 0 | 0 | 0 | 0 | 0 | 0 | 0 | 0 | 0 | – | – |
| O=C1NCC(c2cccc(Br)c2)C1C(=O)Nc1ccccc1F (stereo not shown) [Compound 66] | 0 | 0 | 0 | 0 | 0 | 0 | 0 | 0 | 0 | 0 | 0 | 0 | 20 | 0 | 0 |
| O=C1NCC(c2ccc(C(F)(F)F)cc2)C1C(=O)Nc1ccc(F)c(F)c1F (stereo not shown) [Compound 232] | – | 0 | 0 | 0 | 0 | – | 0 | 0 | 0 | 0 | 75 | 95 | 95 | – | 35 |
